Test results from PMC10489980, “Design of Potent and Salt-Insensitive Antimicrobial Branched Peptides” (Polymers, 2023).
Like-named read-outs stand apart in the source and are kept apart here. Residues, ends and D or L forms follow the SMILES beside them.

Columns and labels:
Assay type in all cases: cell-based
[1] = test system: Staphylococcus aureus 29213
Text: (§1) Ten organisms obtained from the American Type Culture Collection (ATCC; Rockville, MD) were used for antimicrobial assays. Four Gram-negative bacteria included Escherichia coli ATCC 25922, Pseudomonas aeruginosa ATCC 27853, Klebsiella oxytoca ATCC 49131, and Proteus vulgaris ATCC 49132. The three Gram-positive bacteria were Staphylococcus aureus 29213, Micrococcus luteus ATCC 49,732, and Enterococcus faecalis ATCC 29212. The three fungi were Candida albicans ATCC 37092, Candida kefyr ATCC 37095, and Candida tropicalis ATCC 37097. The clinical isolates were obtained from Singapore General Hospital (SGH). They are Enterococcus faecium, Staphylococcus aureus, Klebsiella pneumoniae, Acinetobacter baumannii, Pseudomonas aeruginosa, and Enterobacter species. The strains were incubated in trypticase soy broth (TSB), which was prepared in double distilled water and autoclaved for sterilization. TSB was purchased from Becton-Dickinson (Cockeysville, MD, USA).
(§2) Antimicrobial Assays. A sensitive and reproducible two-stage radial diffusion antimicrobial assay of Lehrer et al. was employed. A 1–4 × 10^6 colony-forming unit/mL of the test organism was mixed with 10 mL of molten underlay gel solution and poured into Petri dishes to form a uniform layer. The gel solution consisted of 10 mM sodium phosphate buffer, 0.03% TSB, and 0.02% Tween-20, with the addition of 100 mM NaCl in the case of high-salt conditions. Upon gel solidification, gel wells were made by a 3-mm diameter template in an evenly spaced array. A 5 µL aliquot of a serial half-log dilution of test peptides at seven concentrations was added to each well after removal of gel plugs. The dishes were incubated at 37 °C for 3 h to allow peptide diffusion into the underlay gels. Gels were overlaid with 10 mL of 1% agarose in 6% TSB (wt/vol). After additional incubation at 37 °C for 16–24 h, the diameter of the clear zone surrounding the wells (colony-free) was measured under a microscope. Antimicrobial activities were expressed in units (0.1 mm = 1 unit), and the MICs (in µM) were determined from the x-intercepts of the dose-response curves. Experiments were performed in triplicates.

[2] = test system: Proteus vulgaris ATCC 49132
Text: as §1, §2

[3] = test system: Candida albicans ATCC 37092
Text: as §1, §2

[4] = test system: Escherichia coli ATCC 25922
Text: as §1, §2

[5] = test system: Candida tropicalis ATCC 37097
Text: as §1, §2

[6] = test system: Candida kefyr ATCC 37095
Text: as §1, §2

[7] = test system: Pseudomonas aeruginosa ATCC 27853
Text: as §1, §2

[8] = test system: Klebsiella oxytoca ATCC 49131
Text: as §1, §2

[9] = test system: Micrococcus luteus ATCC 49,732
Text: as §1, §2

[10] = test system: Enterococcus faecalis ATCC 29212
Text: as §1, §2

## CC(=O)NCCCC[C@H](NC(=O)[C@H](CCCNC(=N)N)NC(=O)[C@H](Cc1ccc(O)cc1)NC(=O)[C@H](CC(C)C)NC(=O)[C@@H](N)CCCNC(=N)N)C(=O)NCCCC[C@H](NC(=O)[C@H](CCCNC(=N)N)NC(=O)[C@H](Cc1ccc(O)cc1)NC(=O)[C@H](CC(C)C)NC(=O)[C@@H](N)CCCNC(=N)N)C(=O)NCCCC[C@H](NC(=O)[C@H](CCCNC(=N)N)NC(=O)[C@H](Cc1ccc(O)cc1)NC(=O)[C@H](CC(C)C)NC(=O)[C@@H](N)CCCNC(=N)N)C(=O)NCCCC[C@H](NC(=O)[C@H](CCCNC(=N)N)NC(=O)[C@H](Cc1ccc(O)cc1)NC(=O)[C@H](CC(C)C)NC(=O)[C@@H](N)CCCNC(=N)N)C(N)=O [iK4R] (HELM PEPTIDE1{R.L.Y.R.K}|PEPTIDE2{[ac]}|PEPTIDE3{R.L.Y.R.K}|PEPTIDE4{R.L.Y.R.K}|PEPTIDE5{R.L.Y.R.K.[am]}$PEPTIDE1,PEPTIDE2,5:R3-1:R2|PEPTIDE1,PEPTIDE3,5:R2-5:R3|PEPTIDE3,PEPTIDE4,5:R2-5:R3|PEPTIDE4,PEPTIDE5,5:R2-5:R3$$$V2.0)
[1]; strain 29213, radial diffusion assay, high-salt (100 mM NaCl), triplicates
  MIC, S. aureus, H-Salt: 0.6 µM
[1]; strain 29213, radial diffusion assay, low-salt (without NaCl), triplicates
  MIC, S. aureus, L-Salt: 0.7 µM
[2]; ATCC 49132, radial diffusion assay, high-salt (100 mM NaCl), triplicates
  MIC, P. vulgaris, H-Salt: 0.7 µM
[2]; ATCC 49132, radial diffusion assay, low-salt (without NaCl), triplicates
  MIC, P. vulgaris, L-Salt: 0.8 µM
[3]; ATCC 37092, radial diffusion assay, high-salt (100 mM NaCl), triplicates
  MIC, C. albicans, H-Salt: 0.9 µM
[3]; ATCC 37092, radial diffusion assay, low-salt (without NaCl), triplicates
  MIC, C. albicans, L-Salt: 0.8 µM
[4]; ATCC 25922, two-stage radial diffusion assay, high-salt (underlay gel 10 mM sodium phosphate, 0.03% TSB, 0.02% Tween-20, with 100 mM NaCl), 37 °C, x-intercept of dose-response curve, triplicates
  MIC, E. coli, H-Salt: 0.4 µM
[4]; ATCC 25922, two-stage radial diffusion assay, low-salt (underlay gel 10 mM sodium phosphate, 0.03% TSB, 0.02% Tween-20, without NaCl), 37 °C, x-intercept of dose-response curve, triplicates
  MIC, E. coli, L-Salt: 0.4 µM
[5]; ATCC 37097, radial diffusion assay, high-salt (100 mM NaCl), triplicates
  MIC, C. tropicalis, H-Salt: 1.3 µM
[5]; ATCC 37097, radial diffusion assay, low-salt (without NaCl), triplicates
  MIC, C. tropicalis, L-Salt: 0.5 µM
[6]; ATCC 37095, radial diffusion assay, high-salt (100 mM NaCl), triplicates
  MIC, C. kefyr, H-Salt: 0.8 µM
[6]; ATCC 37095, radial diffusion assay, low-salt (without NaCl), triplicates
  MIC, C. kefyr, L-Salt: 0.8 µM
[7]; ATCC 27853, radial diffusion assay, high-salt (100 mM NaCl), triplicates
  MIC, P. aeruginosa, H-Salt: 0.7 µM
[7]; ATCC 27853, radial diffusion assay, low-salt (without NaCl), triplicates
  MIC, P. aeruginosa, L-Salt: 0.5 µM
[8]; ATCC 49131, radial diffusion assay, high-salt (100 mM NaCl), triplicates
  MIC, K. oxytoca, H-Salt: 0.7 µM
[8]; ATCC 49131, radial diffusion assay, low-salt (without NaCl), triplicates
  MIC, K. oxytoca, L-Salt: 0.5 µM
[9]; ATCC 49,732, radial diffusion assay, high-salt (100 mM NaCl), triplicates
  MIC, M. luteus, H-Salt: 0.8 µM
[9]; ATCC 49,732, radial diffusion assay, low-salt (without NaCl), triplicates
  MIC, M. luteus, L-Salt: 0.9 µM
[10]; ATCC 29212, radial diffusion assay, high-salt (100 mM NaCl), triplicates
  MIC, E. faecalis, H-Salt: 1.4 µM
[10]; ATCC 29212, radial diffusion assay, low-salt (without NaCl), triplicates
  MIC, E. faecalis, L-Salt: 0.8 µM

## CC(C)C[C@H](NC(=O)[C@@H](N)CCCNC(=N)N)C(=O)N[C@@H](Cc1ccc(O)cc1)C(=O)N[C@@H](CCCNC(=N)N)C(=O)NCCC[C@H](NC(=O)[C@H](CCCNC(=N)N)NC(=O)[C@H](Cc1ccc(O)cc1)NC(=O)[C@H](CC(C)C)NC(=O)[C@@H](N)CCCNC(=N)N)C(=O)NCCC[C@H](NC(=O)[C@H](CCCNC(=N)N)NC(=O)[C@H](Cc1ccc(O)cc1)NC(=O)[C@H](CC(C)C)NC(=O)[C@@H](N)CCCNC(=N)N)C(=O)NCCC[C@H](NC(=O)[C@H](CCCNC(=N)N)NC(=O)[C@H](Cc1ccc(O)cc1)NC(=O)[C@H](CC(C)C)NC(=O)[C@@H](N)CCCNC(=N)N)C(=O)NCCC[C@H](NC(=O)[C@H](CCCNC(=N)N)NC(=O)[C@H](Cc1ccc(O)cc1)NC(=O)[C@H](CC(C)C)NC(=O)[C@@H](N)CCCNC(=N)N)C(N)=O [iO5R] (HELM PEPTIDE1{R.L.Y.R.[Orn]}|PEPTIDE2{R.L.Y.R}|PEPTIDE3{R.L.Y.R.[Orn]}|PEPTIDE4{R.L.Y.R.[Orn]}|PEPTIDE5{R.L.Y.R.[Orn].[am]}$PEPTIDE1,PEPTIDE2,5:R3-4:R2|PEPTIDE1,PEPTIDE3,5:R2-5:R3|PEPTIDE3,PEPTIDE4,5:R2-5:R3|PEPTIDE4,PEPTIDE5,5:R2-5:R3$$$V2.0; N-terminus assumed)
[1]; 29213, 3 h
  MIC, S. aureus, H-Salt: 6.4 µM
  MIC, S. aureus, L-Salt: 1.9 µM
[2]; ATCC 49132, 3 h
  MIC, P. vulgaris, H-Salt: 7.8 µM
  MIC, P. vulgaris, L-Salt: 8.2 µM
[3]; ATCC 37092, 3 h
  MIC, C. albicans, H-Salt: 0.8 µM
  MIC, C. albicans, L-Salt: 0.6 µM
[4]; ATCC 25922, 3 h
  MIC, E. coli, H-Salt: 9.2 µM
  MIC, E. coli, L-Salt: 0.7 µM
[5]; ATCC 37097, 3 h
  MIC, C. tropicalis, H-Salt: 0.6 µM
  MIC, C. tropicalis, L-Salt: 0.9 µM
[6]; ATCC 37095, 3 h
  MIC, C. kefyr, H-Salt: 0.5 µM
  MIC, C. kefyr, L-Salt: 0.6 µM
[7]; ATCC 27853, 3 h
  MIC, P. aeruginosa, H-Salt: 3.8 µM
  MIC, P. aeruginosa, L-Salt: 1.0 µM
[8]; ATCC 49131, 3 h
  MIC, K. oxytoca, H-Salt: 6.2 µM
  MIC, K. oxytoca, L-Salt: 1.2 µM
[9]; ATCC 49, 3 h
  MIC, M. luteus, H-Salt: 2.0 µM
  MIC, M. luteus, L-Salt: 0.8 µM
[10]; ATCC 29212, 3 h
  MIC, E. faecalis, H-Salt: > 500 µM
  MIC, E. faecalis, L-Salt: 2.2 µM
